Measured values reported in ChEMBL document CHEMBL1201862, “PubChem BioAssay data set” (2004).
Active and inactive are the calls of the source.

Columns and labels:
[1] = target: T1, Oxysterols receptor LXR-beta (Homo sapiens, UniProt P55055); format: functional, cell-based;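 note: Cell-based luminescence dose-response assay of agonist activity at LXR, run as a confirmatory counterscreen to a daf-12 agonist screen; agonist potency from rising luciferase signal of a Gal4-LXR reporter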
T1 sequence (P55055 whole entry): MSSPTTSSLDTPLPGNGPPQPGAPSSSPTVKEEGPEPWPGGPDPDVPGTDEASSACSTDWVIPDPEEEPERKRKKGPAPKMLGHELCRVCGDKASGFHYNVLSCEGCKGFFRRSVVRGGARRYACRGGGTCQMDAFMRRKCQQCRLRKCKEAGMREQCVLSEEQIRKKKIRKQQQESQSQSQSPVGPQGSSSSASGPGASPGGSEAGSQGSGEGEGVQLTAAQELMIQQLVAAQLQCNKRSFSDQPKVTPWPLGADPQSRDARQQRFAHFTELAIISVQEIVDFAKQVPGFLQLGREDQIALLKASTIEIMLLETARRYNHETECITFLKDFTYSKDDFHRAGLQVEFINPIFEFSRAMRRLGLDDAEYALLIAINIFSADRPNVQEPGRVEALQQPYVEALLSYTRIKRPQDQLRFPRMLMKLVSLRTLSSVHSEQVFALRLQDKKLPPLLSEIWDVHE

[2] = target: T2, Probable nicotinate-nucleotide adenylyltransferase (Staphylococcus aureus (strain N315), UniProt P65502); format: functional, Staphylococcus aureus subsp. aureus N315; conditions: read-out: IC50_Mean;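 for IC50 Mean: confirmatory dose-response retesting of NadD inhibitor hits first found in an ultra-high-throughput screen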
T2 sequence (P65502 whole entry): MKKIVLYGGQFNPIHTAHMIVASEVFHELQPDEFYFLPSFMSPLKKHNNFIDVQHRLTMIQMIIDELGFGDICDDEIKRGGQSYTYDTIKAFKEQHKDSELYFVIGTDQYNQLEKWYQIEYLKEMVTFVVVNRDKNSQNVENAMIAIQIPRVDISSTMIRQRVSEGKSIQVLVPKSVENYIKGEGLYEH

Ephrin type-A receptor 4 = Ephrin type-A receptor 4 (Mus musculus, UniProt Q03137); test: inhibitors of EphA4 binding to KYL peptide, primary screen, biochemical, colorimetric, mouse EphA4 (AID 689); format: functional
Ephrin type-A receptor 4, sequence (Q03137 whole entry): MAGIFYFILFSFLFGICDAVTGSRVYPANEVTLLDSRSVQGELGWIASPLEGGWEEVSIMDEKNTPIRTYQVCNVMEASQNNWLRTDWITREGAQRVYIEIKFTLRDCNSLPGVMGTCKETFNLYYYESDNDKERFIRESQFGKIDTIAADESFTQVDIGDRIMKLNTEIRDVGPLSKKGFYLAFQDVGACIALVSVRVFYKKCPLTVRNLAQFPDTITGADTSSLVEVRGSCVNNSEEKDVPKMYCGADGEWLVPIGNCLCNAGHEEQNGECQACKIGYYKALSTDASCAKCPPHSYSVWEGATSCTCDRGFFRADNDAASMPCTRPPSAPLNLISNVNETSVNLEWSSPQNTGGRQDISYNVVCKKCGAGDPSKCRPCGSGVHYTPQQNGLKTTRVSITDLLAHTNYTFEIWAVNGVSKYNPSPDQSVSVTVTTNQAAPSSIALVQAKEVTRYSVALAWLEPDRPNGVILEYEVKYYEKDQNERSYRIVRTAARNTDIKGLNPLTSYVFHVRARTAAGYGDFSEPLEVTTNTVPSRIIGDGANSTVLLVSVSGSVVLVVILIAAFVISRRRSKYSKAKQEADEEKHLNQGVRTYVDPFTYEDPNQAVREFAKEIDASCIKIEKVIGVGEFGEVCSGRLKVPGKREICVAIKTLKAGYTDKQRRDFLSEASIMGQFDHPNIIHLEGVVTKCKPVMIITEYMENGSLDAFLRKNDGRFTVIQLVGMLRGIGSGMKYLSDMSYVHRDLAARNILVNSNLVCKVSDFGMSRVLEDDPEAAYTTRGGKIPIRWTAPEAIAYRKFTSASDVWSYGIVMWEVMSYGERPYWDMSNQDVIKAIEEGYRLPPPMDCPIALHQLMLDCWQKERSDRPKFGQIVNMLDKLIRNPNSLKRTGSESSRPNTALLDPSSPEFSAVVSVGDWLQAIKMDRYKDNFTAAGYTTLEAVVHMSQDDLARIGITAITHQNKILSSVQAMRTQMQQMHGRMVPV

[3] = target: T2, Probable nicotinate-nucleotide adenylyltransferase; format: functional, Staphylococcus aureus subsp. aureus N315
Estrogen receptor beta = Estrogen receptor beta (Homo sapiens, UniProt Q92731);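 note: recombinant ER-beta bound to coactivator SRC1 peptide in presence of estradiol agonist; inhibitors block coactivator peptide binding and lower the FRET signal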
Estrogen receptor beta, sequence (Q92731 whole entry): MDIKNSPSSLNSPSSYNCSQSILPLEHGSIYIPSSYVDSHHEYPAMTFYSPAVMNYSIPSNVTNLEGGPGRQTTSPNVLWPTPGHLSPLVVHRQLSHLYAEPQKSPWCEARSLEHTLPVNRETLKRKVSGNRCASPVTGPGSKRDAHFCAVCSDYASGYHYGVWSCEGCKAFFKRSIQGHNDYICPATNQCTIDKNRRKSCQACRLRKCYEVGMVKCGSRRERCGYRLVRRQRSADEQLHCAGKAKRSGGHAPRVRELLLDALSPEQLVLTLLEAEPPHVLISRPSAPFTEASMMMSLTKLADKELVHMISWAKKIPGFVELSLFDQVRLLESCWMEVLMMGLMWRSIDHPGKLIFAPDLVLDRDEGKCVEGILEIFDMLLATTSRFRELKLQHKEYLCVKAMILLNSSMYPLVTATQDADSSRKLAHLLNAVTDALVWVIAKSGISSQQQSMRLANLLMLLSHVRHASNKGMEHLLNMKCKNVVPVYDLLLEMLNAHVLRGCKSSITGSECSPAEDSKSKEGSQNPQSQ

HEK293 = test: inhibitors of LMP1-driven NF-kB reporter, dose response, cell-based, HEK293, luciferase, cherry-pick (AID 588343); format: functional; conditions: Homo sapiens
Beta-galactosidase = Beta-galactosidase (Escherichia coli, UniProt Q8VNN2); test: beta-galactosidase enzyme inhibitors and activators, dose response, artefact control for CCR6 antagonist project, biochemical, E. coli enzyme, set 3 (AID 504712); format: functional
Beta-galactosidase, sequence (Q8VNN2 whole entry): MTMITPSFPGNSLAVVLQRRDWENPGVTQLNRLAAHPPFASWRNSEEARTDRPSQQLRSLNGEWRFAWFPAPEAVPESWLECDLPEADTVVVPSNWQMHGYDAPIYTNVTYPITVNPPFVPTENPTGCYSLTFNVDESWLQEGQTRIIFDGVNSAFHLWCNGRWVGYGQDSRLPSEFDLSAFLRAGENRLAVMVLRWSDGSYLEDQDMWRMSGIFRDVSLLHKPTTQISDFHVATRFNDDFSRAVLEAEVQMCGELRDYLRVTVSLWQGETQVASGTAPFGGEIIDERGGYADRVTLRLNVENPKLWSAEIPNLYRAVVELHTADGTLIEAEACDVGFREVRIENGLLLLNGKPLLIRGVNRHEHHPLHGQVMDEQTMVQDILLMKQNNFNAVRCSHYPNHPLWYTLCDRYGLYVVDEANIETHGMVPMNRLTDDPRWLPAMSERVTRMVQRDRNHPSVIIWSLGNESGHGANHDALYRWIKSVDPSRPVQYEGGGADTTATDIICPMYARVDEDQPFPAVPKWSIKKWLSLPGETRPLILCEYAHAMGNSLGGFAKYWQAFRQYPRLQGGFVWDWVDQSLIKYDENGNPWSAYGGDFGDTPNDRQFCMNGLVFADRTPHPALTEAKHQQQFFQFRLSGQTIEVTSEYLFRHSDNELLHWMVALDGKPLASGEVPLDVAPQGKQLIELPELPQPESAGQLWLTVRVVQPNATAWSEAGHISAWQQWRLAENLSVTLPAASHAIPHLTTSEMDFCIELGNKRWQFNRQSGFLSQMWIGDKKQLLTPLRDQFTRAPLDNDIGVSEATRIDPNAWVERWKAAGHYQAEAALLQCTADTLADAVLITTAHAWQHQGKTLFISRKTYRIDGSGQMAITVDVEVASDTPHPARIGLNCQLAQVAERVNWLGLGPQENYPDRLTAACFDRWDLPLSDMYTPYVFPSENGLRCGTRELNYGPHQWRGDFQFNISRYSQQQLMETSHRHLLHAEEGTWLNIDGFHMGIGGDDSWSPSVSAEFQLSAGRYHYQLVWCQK

Paired box protein Pax-8 = Paired box protein Pax-8 (Homo sapiens, UniProt Q06710); test: inhibitors of PAX8-driven TPO luciferase reporter, dose response, RMG-I cells, cherry-pick (AID 687027); format: functional, cell-based;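 note: luciferase reporter driven by Pax8 target thyroperoxidase promoter measured by SteadyGlo luminescence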
Paired box protein Pax-8, sequence (Q06710 whole entry): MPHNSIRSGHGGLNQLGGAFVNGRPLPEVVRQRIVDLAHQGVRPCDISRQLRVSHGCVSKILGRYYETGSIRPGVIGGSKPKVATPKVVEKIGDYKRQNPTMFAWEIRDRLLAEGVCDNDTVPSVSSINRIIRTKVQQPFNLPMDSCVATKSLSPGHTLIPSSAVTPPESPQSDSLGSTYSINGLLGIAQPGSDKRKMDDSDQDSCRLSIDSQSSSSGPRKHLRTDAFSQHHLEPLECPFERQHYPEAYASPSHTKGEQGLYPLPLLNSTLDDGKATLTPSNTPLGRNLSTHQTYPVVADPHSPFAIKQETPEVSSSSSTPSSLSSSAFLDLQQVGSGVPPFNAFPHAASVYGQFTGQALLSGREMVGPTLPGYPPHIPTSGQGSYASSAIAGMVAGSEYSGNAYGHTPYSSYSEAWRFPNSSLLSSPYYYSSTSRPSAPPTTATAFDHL

[4] = non-specific cell cytotoxicity, dose response, cytotoxicity control for PAX8 inhibitor project, plate reader, dry powder samples (AID 743021); format: functional, cell-based
[5] = HEK293T cytotoxicity, dose response, cytotoxicity control for miR-122 modulator project, cell-based, inhibitor set, cherry-pick, set 2 (AID 720697); format: functional
[6] = target: Sphingosine 1-phosphate receptor 2 (Homo sapiens, UniProt O95136); test: Dose Response Cell Based Assay for Antagonists of the S1P2 Receptor. [Related pubchem assays: 856, 736 ]; format: functional
Sphingosine 1-phosphate receptor 2, sequence (O95136 whole entry): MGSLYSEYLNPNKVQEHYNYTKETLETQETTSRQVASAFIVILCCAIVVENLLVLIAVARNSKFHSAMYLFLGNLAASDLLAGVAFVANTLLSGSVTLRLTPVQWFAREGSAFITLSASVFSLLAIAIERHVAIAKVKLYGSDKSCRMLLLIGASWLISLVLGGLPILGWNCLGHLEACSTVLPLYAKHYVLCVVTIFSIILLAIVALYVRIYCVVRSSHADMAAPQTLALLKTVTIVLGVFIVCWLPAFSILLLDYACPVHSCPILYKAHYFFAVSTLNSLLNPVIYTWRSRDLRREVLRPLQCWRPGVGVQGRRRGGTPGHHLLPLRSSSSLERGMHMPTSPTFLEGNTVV

INS1 = test: beta cell apoptosis inhibitors, cytokine rescue, dose response, luminescence, retest (AID 449756); format: functional, cell-based; conditions: Rattus norvegicus;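 note: cell death triggered by IL-1 beta plus TNF-alpha plus IFN-gamma mixture; protective hits raise ATP signal compared with cytokine alone wells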
BJ [7] = test: cells; format: functional, cell-based; conditions: Homo sapiens
[8] = cytotoxicity in HPDE-C7 cells, cell-based, fluorescence, HTS (AID 430); format: functional; conditions: Homo sapiens
[9] = HepG2 cell cytotoxicity, dose response, cytotoxicity control for Shn3 inhibitor project, CellTiter-Glo, cherry-picked (AID 624134); format: functional, cell-based
[10] = Shn3 3'UTR reporter inhibitors, dose response, cell-based, Clone20 osteoblasts, firefly luciferase, cherry-picked (AID 624132); format: functional;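 note: firefly luciferase luminescence from reporter carrying the Shn3 3'UTR in osteoblasts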
BJ [11] = test: cytotoxicity toward BJ-TERT fibroblasts, dose response, cell-based, RAS-independent, luminescence (AID 1933); format: functional; conditions: Homo sapiens
BJ [12] = test: cytotoxicity toward BJ-TERT-LT-ST fibroblasts, dose response, cell-based, RAS-independent, luminescence (AID 1935); format: functional; conditions: Homo sapiens;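 note: BJ fibroblasts immortalized with TERT plus LT and ST oncogenes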
[13] = cytotoxicity in HEK-293T cells, dose response, cytotoxicity control for TCR NF-kB inhibitor project, luminescence, T-cell screen hits (AID 489026); format: functional, cell-based;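 note: cells exposed to compound about 14 hours before the viability readout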
[14] = cytotoxicity toward DRD oncogenic fibroblasts, dose response, cell-based, non-viral oncogenic, luminescence (AID 1934); format: functional; conditions: Homo sapiens
[15] = cytotoxicity in KRAS-transformed pancreatic duct cells, primary screen, cell-based, fluorescence, HTS (AID 431); format: functional; conditions: Homo sapiens;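 note: cell line used: HPDE-C7K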
[16] = control 3'UTR Renilla luciferase suppression, dose response, counter-screen for Shn3 inhibitor project, cell-based, Clone20-Shn3RL, cherry-picked (AID 624133); format: functional
[17] = P. falciparum late gametocyte killing, dose response, luminescence (AID 1117278); format: functional, cell-based;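 note: gametocytes exposed to compound for 24 hours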
[18] = Jurkat T cell cytotoxicity, dose response, cytotoxicity control for P. falciparum gametocyte viability project, luminescence (AID 1117277); format: functional, cell-based;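 note: potency reflects loss of cellular ATP meaning fewer viable cells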
[19] = inhibitors of Vif binding to APOBEC3G peptide, primary screen, biochemical, TR-FRET, GST-Vif 1-94, biotin-A3G peptide, dose response retest (AID 1117319); format: functional;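 note: TR-FRET signal of purified GST-Vif binding a biotinylated A3G peptide; inhibitors lower the FRET signal by blocking Vif and A3G binding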
[20] = target: T1, Oxysterols receptor LXR-beta; test: LXR agonists, Gal4 luciferase reporter, dose response, counter-screen for ssDAF-12 agonist project, cell-based, luminescence, HEK293, S. stercoralis campaign (AID 720737); format: functional; conditions: read-out: IC50 (the source's name)
[21] = Luminescence-based cell-based high throughput dose response assay to identify activators of the DAF-12 from the parasite S. stercoralis (ssDAF-12).; format: functional

Cc1cc(N/C=C/C(=O)c2cccs2)ccc1F
EC50 (cells): > 67.6 µM (inactive) | EC50 [1]: > 67.6 µM (inactive)

CC(C)CC(C(=O)Nc1oc(-c2ccco2)c(-c2ccco2)c1C#N)N1C(=O)c2ccccc2C1=O (stereo not given)
IC50 [2]: 53.1 µM (active) | IC50 (Ephrin type-A receptor 4): > 100 µM (not active) | IC50 [3]: 16.4 µM (active)

C=CCN1C(=O)NC(=O)/C(=C(/CC)NCc2cccnc2)C1=O
IC50 (Estrogen receptor beta): > 50 µM (not active)

COc1ccc(N2C(=O)CC(Sc3nnc(-c4ccccc4)o3)C2=O)cc1 (stereo not given)
AC50 (HEK293): 19.6 µM (active) | IC50 (Beta-galactosidase): > 66.6 µM (inactive) | AC50 (Paired box protein Pax-8): 10.4 µM (active) | AC50 [4]: 44.9 µM (active)

CCn1nnnc1SCC(=O)Nc1nnc(C(C)C)s1
AC50 [5]: 7.36 µM (active)

COc1ccc(OC)c(NC(=O)CSc2ncnc3c2cnn3-c2ccccc2Cl)c1
IC50 [6]: 3.67 µM (active) | AC50 (INS1): 2.15 µM (active)

COc1cccc(N2CCN(c3ncnc4c3cnn4-c3ccc(C)cc3C)CC2)c1
EC50 (BJ [7]): 16.8 µM (active) | EC50 [8]: 3.78 µM (active) | AC50 [9]: 37.2 µM (active) | AC50 [10]: 4.65 µM (active) | EC50 (BJ [11]): 14.4 µM (active) | AC50 (Paired box protein Pax-8): 6.38 µM (active) | EC50 (BJ [12]): > 150 µM (inconclusive) | IC50 [13]: 3.73 µM (active) | AC50 [4]: 17.5 µM (active) | EC50 [14]: 11 µM (active) | EC50 [15]: 3.17 µM (active) | AC50 [16]: 4.03 µM (active)

COc1ccc(Cl)cc1C(=O)CSc1nnnn1C1CCCCC1
IC50 [17]: > 109 µM (inactive) | IC50 [18]: 10.9 µM (inactive)

O=C(Cn1nc(-c2ccc(Cl)cc2)ccc1=O)NCc1ccc2c(c1)OCO2
IC50 [19]: > 100 µM (active)

COc1ccc(-c2nc3ccccn3c2Cl)cc1
EC50 [20]: > 67.6 µM (inactive) | IC50 [21]: > 67.6 µM (inactive)
